The source of these data is patent US20260053861A1, “CELL COMPOSITIONS AND METHODS OF USING THE SAME” (THE REGENTS OF THE UNIVERSITY OF CALIFORNIA, priority 2022, published 2026).

Counter-ions that a name gives are not always drawn.

The test system of one experiment is hPSC-SCs.
Conditions: not given
On to `Cl.O=c1[nH]oc2c1CCNC2` [THIP Hydrochloride], for which the z.score.t was 0.9162. As to `CCC(=O)O[C@H]1CC[C@H]2[C@@H]3CCC4=CC(=O)CC[C@]4(C)[C@H]3CC[C@]12C` [Testosterone propionate], the z.score.t is −1.014. Take `CCCCNc1ccc(C(=O)OCCN(C)C)cc1.Cl` [TetracaÂ<ne hydrochloride]: the z.score.t is −0.2276. Compound `Cn1c(=O)c2[nH]cnc2n(C)c1=O.O` [Theophylline monohydrate] displayed a z.score.t of −1.123. `COc1c(O[C@@H]2O[C@H](CO)[C@@H](O)[C@H](O)[C@H]2O)cc2c(c1OC)-c1ccc(SC)c(=O)cc1[C@@H](NC(C)=O)CC2` [Thiocolchicoside] yielded a z.score.t of 1.11.

The experiment is the same for the next values; noted with them: HTS viability of hPSC-SCs in the presence of 30 mM glucose; Prestwick library; Table S4.
Take `Nc1c2c(nc3ccccc13)CCCC2` [Tacrine hydrochloride hydrate]: the z.score.t is recorded as −0.7049. The same measure, in the same setting: for `CC1(C)S[C@@H]2[C@H](NC(=O)[C@H](N)c3ccccc3)C(=O)N2[C@H]1C(=O)OC1OC(=O)c2ccccc21` (stereo partly shown) [Talampicillin hydrochloride] the value was −0.8111; for `CC/C(=C(\c1ccccc1)c1ccc(OCCN(C)C)cc1)c1ccccc1` [Tamoxifen citrate], −1.827. `Cc1scc2c1N(C(=O)CN1CCN(C)CC1)c1ccccc1NC2=O` [Telenzepine dihydrochloride]: the z.score.t is 0.5452. Regarding `CN1C(C(=O)Nc2ccccn2)=C(O)c2sccc2S1(=O)=O` [Tenoxicam], the z.score.t is listed as 1.659. Consider `COc1cc2nc(N3CCN(C(=O)C4CCCO4)CC3)nc(N)c2cc1OC` (stereo not shown) [Terazosin hydrochloride], for which the z.score.t stood at 0.2582.

On to `CC(C)N1CCN(c2ccc(OCC3COC(Cn4cncn4)(c4ccc(Cl)cc4Cl)O3)cc2)CC1` (stereo not shown) [Terconazole], for which the z.score.t was −0.07901. As to `CC(C)(C)c1ccc(C(O)CCCN2CCC(C(O)(c3ccccc3)c3ccccc3)CC2)cc1` (stereo not shown) [Terfenadine], the z.score.t is −0.8513. On the same count and under the same terms, for `CN(C)[C@@H]1C(O)=C(C(N)=O)C(=O)[C@@]2(O)C(O)=C3C(=O)c4c(O)cccc4[C@@](C)(O)[C@H]3C[C@@H]12` [Tetracycline hydrochloride] the value was −0.2425; for `O.O=C1C(O)=C(O)C(=O)C(O)=C1O` [Tetrahydroxy-1,4-quinone monohydrate], 1.323.

Consider `c1ccc2c(c1)CCCC2C1=NCCN1` (stereo not shown) [Tetrahydrozoline hydrochloride], for which the z.score.t worked out at 0.81. Still for that read-out and setting: for `c1ccc(C2CN3CCSC3=N2)cc1` (stereo not shown) [Tetramisole hydrochloride] the value was −0.3319. Consider `COc1ccc2cc1Oc1ccc(cc1)C[C@H]1c3cc(c(OC)cc3CCN1C)Oc1c(OC)c(OC)cc3c1[C@H](C2)N(C)CC3` [Tetrandrine], for which the z.score.t was −0.4538. In the case of `O=C1CCC(N2C(=O)c3ccccc3C2=O)C(=O)N1` (stereo not shown) [Thalidomide], the z.score.t is recorded as −1.821. Same read-out and setting: for `Cn1cnc2c1c(=O)[nH]c(=O)n2C` [Theobromine] the value was −1.169. Still for that read-out and setting: for `Cc1ncc(C[n+]2csc(CCO)c2C)c(N)n1` [Thiamine hydrochloride] the value was −0.865. The same measure, in the same setting: for `CS(=O)(=O)c1ccc([C@@H](O)[C@@H](CO)NC(=O)C(Cl)Cl)cc1` [Thiamphenicol] the value was 1.099; for `S=C(NC1CCCCC1)N1CCC(c2cnc[nH]2)CC1` [Thioperamide maleate], 0.8825; for `CSc1ccc2c(c1)N(CCC1CCCCN1C)c1ccccc1S2` (stereo not shown) [Thioridazine hydrochloride], −1.898. Regarding `O=C(O)CNC(=O)C(CS)Cc1ccccc1` (stereo not shown) [Thiorphan], the z.score.t stood at 0.563.
